Assay results: patent US8058243B2, “Method for treating a brain cancer with ifenprodil” (HSC Research and Development Limited Partnership, priority 2006, dated 2011)
Where a name gives a salt, the structure may show the parent alone. Read-outs that look alike come from different tables or passages of the source.

Columns and labels:
[1] = system: mouse NSC neurosphere cultures; experiment: Dose-response curves and EC50, neurosphere MTT proliferation, 7 days; type: cell-based; settings: Table 8; read-out: Neurosphere EC50
[2] = system: murine neural precursor cells (neurosphere cultures); experiment: HTS of LOPAC library against secondary neurosphere cultures, MTT proliferation assay at 3 μM, day 7 (z score, P value); type: cell-based, mouse
[3] = LOPAC primary screen, neurosphere MTT proliferation, 3 μM, day 7
[4] = yes = significantly inhibited neurosphere proliferation (P<0.01) in the primary screen
[5] = LOPAC screen, neurosphere MTT proliferation, 3 μM, day 7
[6] = yes/no: significantly inhibited neurosphere proliferation (P<0.01) in primary screen
[7] = LOPAC library screen, 3 μM, MTT, secondary neurosphere cultures, day 7
[8] = primary LOPAC screen, 3 μM, MTT, neurosphere proliferation
[9] = yes/no: significantly inhibited neurosphere proliferation in the primary screen
[10] = yes/no: significantly inhibited neurosphere proliferation (P<0.01) in the primary screen
[11] = yes/no: significantly inhibited neurosphere proliferation in primary screen
[12] = LOPAC library screen, 3 μM, MTT, neurosphere cultures
[13] = LOPAC library screen at 3 μM, secondary neurosphere cultures, MTT

Molecule: CC(C)COC(=O)OCN1C(=O)CN(CCN2CC(=O)N(COC(=O)OCC(C)C)C(=O)C2)CC1=O [Sobuzaxane (19), Sobuzaxane]
- EC50 [1]: 10.2 µM

Molecule: Cl.NO [Hydroxylamine hydrochloride]
- Activity [2]: no
- Z Score [2]: 1.635
- Z score [2]: 1.635

Molecule: COc1ccc(CNC(=O)/C=C/c2ccc3[nH]cc(CCN(C)C)c3c2)cc1 [GR 4661]
- Z Score [2]: 0.1015
- Z score [2, 3]: 0.102
- Activity [2, 4]: no

Molecule: C[C@@H]1O[C@@H](O[C@H]2C[C@@H](O)[C@]3(CO)[C@H]4[C@H](O)C[C@]5(C)[C@@H]([C@@H]6COC(=O)C6)CC[C@]5(O)[C@@H]4CC[C@]3(O)C2)[C@H](O)[C@H](O)[C@H]1O [Dihydroouabain]
- Z Score [2]: 0.2034
- Z score [2, 5]: 0.203
- Activity [2, 6]: no

Molecule: (−)-Tetramisole hydrochloride
- Z Score [2, 7]: −1.866

Molecule: N#CCCN.N#CCCN.O=C(O)/C=C/C(=O)O [3-Aminopropionitrile fumarate]
- Z Score [2]: 1.234
- Z score [2, 8]: 1.234
- Activity [2, 9]: no

Molecule: CC[N+](CC)(CC)CCOc1ccc(/C=C/c2ccccc2)cc1 [MG 624]
- Z Score ([2]; 168 h, 3 µM): −10.66
- Z score ([2]; 168 h, 3 µM): −10.660
- Activity [2, 10]: yes

Molecule: C=C(C)[C@H]1Cc2c(ccc3c2O[C@@H]2COc4cc(OC)c(OC)cc4[C@@H]2C3=O)O1 [Rotenone]
- Z Score [2]: −11.27
- Z score [2, 3]: −11.274
- Activity [2, 4]: yes

Molecule: Cc1cn([C@H]2C=C[C@@H](CO)O2)c(=O)[nH]c1=O [2′,3′-didehydro-3′-deoxythymidine]
- Z Score [2, 7]: −1.878
- Z score [2, 5]: −1.878
- Activity [2, 6]: no

Molecule: Cl.N=c1c[n+](N2CCOCC2)[n-]o1 [3-Morpholinosydnonimine hydrochloride]
- Z Score ([2]; 168 h, 3 µM): −1.324
- Z score ([2]; 168 h, 3 µM): −1.324
- Activity [2, 4]: no

Molecule: NC/C=C/C(=O)O [(E)-4-amino-2-butenoic acid]
- Z Score [2, 7]: −2.149
- Z score [2, 8]: −2.149
- Activity [2, 9]: no

Molecule: CCCN1CCO[C@@H]2c3cc(O)ccc3OC[C@H]21.Cl [S(+)-PD 128,907 hydrochloride]
- Z Score [2]: −1.174
- Z score [2, 3]: −1.174
- Activity [2, 11]: no

Molecule: c1ccc(C2CC2)c(OCC2=NCCN2)c1 [Cirazoline hydrochloride]
- Z Score [2, 12]: 0.4239
- Z score [2, 5]: 0.424
- Activity [2, 6]: no

Molecule: COc1cc(C(O)CN)ccc1O.Cl (racemic) [(±)-Normetanephrine hydrochlodride]
- Z score [2, 3]: −1.796
- Activity [2, 4]: no

Molecule: Clc1ccc2c(c1)C(N1CCNCC1)=Nc1ccccc1O2 [Amoxapine]
- Z Score ([2]; 168 h, 3 µM): −1.041
- Z score ([2]; 168 h, 3 µM): −1.041
- Activity [2, 9]: no

Molecule: CC(C)NCC(O)COc1cccc2ccccc12.Cl (stereo not drawn) [(B1)-Propranolol hydrochloride]
- Z Score [2, 12]: 0.3567

Molecule: CC(C)(C)c1ccc(C(O)CCCN2CCC(C(O)(c3ccccc3)c3ccccc3)CC2)cc1 (stereo not drawn) [Terfenadine]
- Activity [2]: no
- Z Score [2, 12]: 0.7553
- Z score [2, 8]: 0.755

Molecule: CCc1ccccc1OC[C@@H](O)CN[C@H]1CCCc2ccccc21.O=C(O)C(=O)O [SR 59230A oxalate]
- Z Score [2, 7]: −1.222
- Z score [2, 3]: −1.222
- Activity [2, 11]: no

Molecule: CC(C)(C)c1o[nH]c(=O)c1CC(N)C(=O)O (stereo not drawn) [ATPA]
- Activity [2]: no
- Z Score [2]: 0.2832
- Z score [2, 8]: 0.283

Molecule: CC(C)[C@H]1CN[C@H](C(=O)O)[C@H]1CC(=O)O [Dihydrokainic acid]
- Z Score [2]: 1.329
- Z score [2, 5]: 1.329
- Activity [2, 6]: no

Molecule: CCCCS(=N)(=O)CCC(N)C(=O)O [L-Buthionine-sulfoximine]
- Z Score [2, 12]: 0.5134
- Z score [2, 5]: 0.513
- Activity [2, 6]: no

Molecule: CC(=O)O[C@H]1C[C@@H]2CC[C@@H]3[C@H](CC[C@@]4(C)[C@H]3C[C@H]([N+]3(C)CCCCC3)[C@@H]4OC(C)=O)[C@@]2(C)C[C@@H]1[N+]1(C)CCCCC1 [Pancuronium bromide]
- Z Score [2, 12]: 0.4077
- Z score [2, 3]: 0.408
- Activity [2, 11]: no

Molecule: Cn1cnc2c(NC3CCCC3)ncnc21 [N6-Cyclopentyl-9-methyladenine]
- Z Score [2, 7]: −2.112
- Z score [2, 3]: −2.112
- Activity [2, 11]: no

Molecule: (−)-Eseroline fumarate
- Z Score [2]: 0.6339
- Z score [2, 3]: 0.634
- Activity [2, 6]: no

Molecule: N=C(NCCC[C@H](N)C(=O)O)N[N+](=O)[O-] [NG-Nitro-L-arginine]
- Z Score [2, 12]: 0.1385
- Z score [2, 3]: 0.139
- Activity [2, 4]: no

Molecule: CC(=O)[C@H]1CC[C@H]2[C@@H]3CC=C4C[C@@H](OS(=O)(=O)[O-])CC[C@]4(C)[C@H]3CC[C@]12C.[Na+] [Pregnenolone sulfate sodium]
- Z Score ([2]; LOPAC library screen at 3 μM, MTT, secondary neurosphere cultures, screened in singlets): 2.653
- Z score [2, 3]: 2.653
- Activity [2, 11]: no

Molecule: O=c1cc(O)cc(/C=C/c2ccc(O)c(O)c2)o1 [Hispidin]
- Z Score ([2]; 168 h, 3 µM): 0.8896
- Z score ([2]; 168 h, 3 µM): 0.890
- Activity [2, 6]: no

Molecule: CCN(CC)C(=O)c1ccc(O)c(OC)c1 [Vanillic acid diethylamide]
- Z Score [2, 13]: −0.5948
- Z score [2, 5]: −0.595
- Activity [2, 6]: no

Molecule: CSC(=N)N.CSC(=N)N.O=S(=O)(O)O [S-Methylisothiourea hemisulfate]
- Activity [2]: no
- Z Score [2]: −0.2111
- Z score [2]: −0.211

Molecule: CN(C)CCC(c1ccc(Cl)cc1)c1ccccn1.O=C(O)/C=C\C(=O)O (racemic) [(±)-Chlorpheniramine maleate]
- Activity [2]: no
- Z score [2]: −2.116

Molecule: Cn1cnc2c1c(=O)[nH]c(=O)n2C [Theobromine]
- Z Score ([2]; 168 h, 3 µM): −1.392
- Z score ([2]; 168 h, 3 µM): −1.392
- Activity [2, 9]: no

Molecule: CC(=O)OCC1=C(C(=O)[O-])N2C(=O)[C@@H](NC(=O)CCC[C@@H](N)C(=O)[O-])[C@H]2SC1.[Zn+2] [Cephalosporin C zinc salt]
- Z Score [2]: −3.309
- Z score [2, 3]: −3.309
- Activity [2, 10]: yes

Molecule: O=C(c1ccc(F)cc1)C1CCN(CCn2c(=O)[nH]c3ccccc3c2=O)CC1 [Ketanserin tartrate]
- Z Score ([2]; 168 h, 3 µM): −3.325
- Z score ([2]; 168 h, 3 µM): −3.325
- Activity [2, 10]: yes

Molecule: Cc1nc(N=Nc2cc(S(=O)(=O)[O-])c3cc([N+](=O)[O-])cc(S(=O)(=O)[O-])c3c2)c(COP(=O)([O-])[O-])c(C=O)c1O.[Na+].[Na+].[Na+].[Na+] [PPNDS tetrasodium]
- Z Score [2]: −2.067
- Z score [2, 3]: −2.067
- Activity [2, 11]: no

Molecule: O=C(O)Cc1c[nH]c2ccc(O)cc12 [5-Hydroxyindolacetic acid]
- Z Score [2, 7]: −1.301
- Z score [2, 3]: −1.301
- Activity [2, 6]: no

Molecule: CN1Cc2c(N)cccc2C(c2ccccc2)C1 (stereo not drawn) [Nomifensine maleate]
- Z Score [2, 12]: 0.6693
- Z score [2, 3]: 0.669
- Activity [2, 4]: no

Molecule: NS(=O)(=O)Cc1noc2ccccc12 [Zonisamide sodium]
- Z Score [2, 13]: −0.9169
- Z score [2, 8]: −0.917
- Activity [2, 9]: no

Molecule: O=c1[nH]c2ccccc2n1CCCN1CCC(n2c(=O)[nH]c3cc(Cl)ccc32)CC1 [Domperidone]
- Activity [2]: no
- Z Score [2, 7]: −1.525
- Z score [2, 3]: −1.525

Molecule: C#CCn1c(=O)c2c(ncn2C)n(C)c1=O [3,7-Dimethyl-I-propargylxanthine]
- Z Score [2]: 1.454
- Z score [2, 5]: 1.454
- Activity [2, 6]: no

Molecule: NNc1nncc2ccccc12 [Hydralazine hydrochloride]
- Z Score [2, 12]: 0.2592
- Z score [2, 3]: 0.259
- Activity [2, 6]: no

Molecule: O=P(O)(O)C(Cl)(Cl)P(=O)(O)O [Clodronic acid]
- Z Score [2, 13]: −0.1842
- Z score [2, 5]: −0.184
- Activity [2, 6]: no

Molecule: COc1cc2nc(N3CCN(C(=O)OCc4ccccc4)[C@H](C(=O)NC(C)(C)C)C3)nc(N)c2cc1OC [L-765,314]
- Z Score [2]: −0.8308
- Z score [2, 3]: −0.831
- Activity [2, 10]: no

Molecule: CN(C)CC/C=C1/c2ccccc2Sc2ccc(Cl)cc21 [Chlorprothixene hydrochloride]
- Z Score ([2]; 168 h, 3 µM): −5.008
- Z score ([2]; 168 h, 3 µM): −5.008
- Activity [2, 10]: yes

Molecule: Cl.O=C(Cc1ccc(Cl)c(Cl)c1)N1CCCCC1CN1CCCC1 (stereo not drawn) [BRL 52537 hydrochloride]
- Z Score [2]: −2.761
- Z score [2, 3]: −2.761
- Activity [2, 10]: yes

Molecule: O=C[C@H](Cl)[C@@H](O)[C@H](O)[C@H](O)CO [2-Chloro-2-deoxy-D-glucose]
- Z Score [2, 7]: −2.364
- Z score [2, 3]: −2.364
- Activity [2, 4]: yes

Molecule: CC(=O)Oc1ccccc1C(=O)O [Acetylsalicyclic acid]
- Z score [2, 8]: −0.481
- Activity [2, 9]: no

Molecule: C=CCc1ccccc1OCC(O)CNC1(C)CCC(C(C)(C)NC(=O)CBr)CC1 (stereo not drawn) [Bromoacetyl alprenolol menthane]
- Z Score [2]: 1.442
- Z score [2, 5]: 1.442
- Activity [2, 6]: no

Molecule: CN[C@@H]1C[C@@H](c2ccc(Cl)c(Cl)c2)c2ccccc21 [Indatraline hydrochloride]
- Z Score [2]: −0.7236
- Z score [2, 3]: −0.724
- Activity [2, 6]: no

Molecule: COc1ccccc1N1CCN(CCCCN2C(=O)c3ccccc3C2=O)CC1 [NAN-190 hydrobromide]
- Z Score [2, 13]: −0.6186
- Z score [2, 3]: −0.619
- Activity [2, 4]: no

Molecule: O=C(/C=C/c1ccc(O)cc1)c1ccc(O)cc1O [Isoliquiritigenin]
- Z Score ([2]; 168 h, 3 µM): −2.817
- Z score ([2]; 168 h, 3 µM): −2.817
- Activity [2, 10]: yes

Molecule: CC(CN(C)C)CN1c2ccccc2CCc2ccccc21 (stereo not drawn) [Trimipramine maleate]
- Z Score [2, 12]: 0.5677
- Z score [2, 8]: 0.568
- Activity [2, 9]: no
